Reference: US8748491B2, “Dietary and pharmaceutical compositions containing tricyclic diterpenes and their derivatives and their uses” (priority 2006, dated 2014)
Marks after values point to notes of the source that are not given here.

Assays:
[1] = target: T1, human serotonin re-uptake transporter (hSERT) (Homo sapiens, UniProt P31645); assay: Inhibition of tritiated serotonin uptake into transfected HEK-293 cells; assay type: cell-based; conditions: HEK-293 cells expressing hSERT; 20 nM [3H] serotonin, 40 min, 37° C.; mean ± s.e.m.
T1 construct: host or cells: HEK-293
Description: HEK-293 cells stably expressing the human serotonin re-uptake transporter (hSERT) were obtained from R. Blakely, Vanderbilt University, USA. The cells were routinely grown in Dulbecco's Modified Eagle's Medium (Bioconcept) containing 10% fetal calf serum, penicillin, streptomycin, L-glutamine and the antibiotic G418 and passaged by trypsinisation. On the day of assay, cells from 80% confluent flasks were harvested by gentle washing with warm phosphate buffered saline (PBS). […] Serotonin uptake into the cells was determined by addition of radio-labelled [^3H] serotonin (GE Healthcare) at a concentration of 20 nM, and incubation for 40 minutes at 37° C. with gentle shaking. At the end of this time unincorporated label was removed by filtration though Unifilter 96 GF/B plates (Perkin Elmer) using a Tomtec Mach III M cell harvester. The incorporated serotonin retained on the plates was quantified by liquid scintillation counting using Microscint-40/Topcount (Perkin Elmer).

[2] = target: T2, Monoamine oxidase A (MAO-A) (Homo sapiens, UniProt P21397); assay: Monoamine oxidase A inhibition (p-tyramine substrate, H2O2/vanillic acid/HRP readout); assay type: biochemical; conditions: p-tyramine 0.5 mM; mean ± s.e.m.; read-out: IC50 [μM] for Inhibition of MAO-A
T2 sequence (P21397 1-527): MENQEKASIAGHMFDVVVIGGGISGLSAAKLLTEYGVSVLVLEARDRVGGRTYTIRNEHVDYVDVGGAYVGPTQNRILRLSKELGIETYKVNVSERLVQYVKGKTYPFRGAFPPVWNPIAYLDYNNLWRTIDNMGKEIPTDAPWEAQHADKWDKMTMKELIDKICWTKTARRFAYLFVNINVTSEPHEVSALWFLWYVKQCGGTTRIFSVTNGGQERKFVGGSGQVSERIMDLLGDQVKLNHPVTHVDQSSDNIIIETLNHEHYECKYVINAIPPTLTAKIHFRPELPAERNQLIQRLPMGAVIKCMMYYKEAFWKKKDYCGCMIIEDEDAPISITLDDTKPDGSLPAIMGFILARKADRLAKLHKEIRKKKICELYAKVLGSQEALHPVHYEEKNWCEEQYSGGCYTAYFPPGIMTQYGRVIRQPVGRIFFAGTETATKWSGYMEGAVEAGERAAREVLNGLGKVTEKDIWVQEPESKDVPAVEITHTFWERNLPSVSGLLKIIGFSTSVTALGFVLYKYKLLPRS
Protocol: (§1) The organic amines p-tyramine or benzylamine were used as substrates for the Monoamine oxidase A (MAO-A) and B (MAO-B) enzymes respectively. The H2O2 produced by this reaction was quantified by reaction with vanillic acid, catalysed by horse radish peroxidase (HRP).
(§2) The reactions were carried out in polystyrene microtitre plates. The MAO enzymes (final concentration 2 U/ml) were mixed with either p-tyramine (Sigma, final concentration 0.5 mM) or benzylamine (Sigma, final concentration 0.5 mM) as appropriate and the chromogenic solution (containing vanillic acid (Fluka), 4-aminoantipyrine (Fluka) and horse radish peroxidase (Sigma), final concentrations 0.25 mM, 0.125 mM and 1 U/ml respectively) in 0.2 M potassium phosphate buffer, pH 7.6. The reactions were followed in a microtitre plate absorbance reader e.g. Spectramax M5 (Molecular Devices Corporation). Absorbance readings at 495 nm were taken every 15 seconds for 40 minutes and the initial reaction velocities calculated by linear regression using SOFTmaxPro (Molecular Devices Corporation).
(§3) The effect of tricyclic diterpenes and their derivatives according to formula I on the monoamine oxidase enzymes was determined by their inclusion in the assay at a range of concentrations between 0.03 and 100 μM for 10 minutes prior to and during the incubation with substrate. To determine the effect of the compounds on the HRP catalyzed portion of the reaction, the MAO enzyme was replaced by H2O2 (Molecular Probes, final concentration 0.2 mM). The reactions containing MAO-A and MAO-B were both inhibited by tricyclic diterpenes and their derivatives according to formula I in a dose-dependent manner, whilst the control reaction, was unaffected. The measured IC50 values for inhibition of monoamine oxidase activity by carnosic acid, carnosic acid-12-methyl ether and 20-deoxo-carnosol are shown in Table 3.

[3] = target: T3, Monoamine oxidase B (MAO-B) (Homo sapiens, UniProt P27338); assay: Monoamine oxidase B inhibition (benzylamine substrate, H2O2/vanillic acid/HRP readout); assay type: biochemical; conditions: benzylamine 0.5 mM; mean ± s.e.m.; read-out: IC50 [μM] for Inhibition of MAO-B
T3 sequence (P27338 1-520): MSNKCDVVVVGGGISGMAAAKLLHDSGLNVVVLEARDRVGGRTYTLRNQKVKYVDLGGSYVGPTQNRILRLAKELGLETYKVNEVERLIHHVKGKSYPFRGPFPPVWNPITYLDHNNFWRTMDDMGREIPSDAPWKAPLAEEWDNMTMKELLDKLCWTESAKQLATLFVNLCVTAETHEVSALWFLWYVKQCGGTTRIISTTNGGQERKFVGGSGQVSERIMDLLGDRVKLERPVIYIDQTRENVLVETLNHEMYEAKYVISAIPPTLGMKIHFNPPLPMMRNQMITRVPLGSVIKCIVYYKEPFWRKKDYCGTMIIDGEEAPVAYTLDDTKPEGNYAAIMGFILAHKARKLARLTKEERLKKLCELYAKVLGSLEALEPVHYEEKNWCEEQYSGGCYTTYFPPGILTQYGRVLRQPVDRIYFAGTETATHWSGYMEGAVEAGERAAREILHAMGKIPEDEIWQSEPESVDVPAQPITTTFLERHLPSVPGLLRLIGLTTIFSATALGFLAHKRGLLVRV
Protocol: as §1, §2, §3

mouse [4] = assay: Marble burying test; assay type: in vivo; conditions: for NUMBER OF MARBLES COVERED BY SAWDUST % change from control / NUMBER OF MARBLES COVERED BY SAWDUST mean ± s.e.m.: mouse
Protocol: The method applied here follows that described by Broekkamp et al., supra. Mice (n=15 per treatment group) were individually placed in transparent plastic cages (33×21×18 cm) with 5 cm of sawdust on the floor and 25 marbles (diameter 1 cm) grouped in the centre of the cage. A second, up-turned, cage served as a lid. The number of marbles covered by sawdust (by at least two-thirds) was counted at the end of the 30-minute test period. Tests were performed by investigators blind to the drug treatment protocol.
Prior to testing, all test cages and marbles were “impregnated” by leaving 10 naive mice in each cage for 15 minutes. […]
Data were analysed by comparing treated groups with vehicle control using unpaired Student's t-tests.

mouse [5] = assay: Light dark box test; assay type: in vivo; conditions: mouse, 32 mg/kg p.o. −1 h
Description: The method, which detects anxiolytic activity, follows that described by Crawley, 1981 Pharmacol. Biochem. Behav., 15:695-699. Anxiolytics increase the time spent in the light compartment.
Animals were placed into the light compartment of a 2-compartment box with one half light and open (25×27×27 cm) and the other half dark and closed (20×27×27 cm). The time spent in each compartment as well as the number of times the animal crosses from one side to the other is scored during a 3-minute test. 15 mice were studied per group. The test was performed blind.
Carnosic acid was evaluated at 3 doses (100, 200, 400 mg/kg BW), administered by oral gavage (p.o.) 24, 5 and 1 hour before the test, and compared with a vehicle control group (corn oil). Carnosic acid was dissolved in corn oil (“vehicle”). Clobazam (32 mg/kg p.o.), administered 1 hour before the test, was used as reference substance. Mice in this group received additional administrations of vehicle at 24 and 5 hours before the test in order to maintain experimental blinding.

mouse [6] = assay: Porsolt's forced swim test (FST); assay type: in vivo
Protocol: Mice were individually placed in cylinders (24.5 cm height, 19.5 cm internal diameter) containing 13.5 cm depth of water (22±0.5° C.) for a period of 6 minutes, behavioural parameters of interest being analysed during the final 4 minutes of the test, since the first 2 minutes include vigorous activity. Six cylinders were placed in a Perspex box, thus enabling six mice to be tested simultaneously.
Automatic monitoring of swim tests was enabled through the use of VideoMot2 software (TSE Technical and Scientific Equipment GmbH, Bad Homburg, Germany). All to experiments were observed via a black and white CCD camera. The rest:locomotion and stop:start thresholds, as determined by setting parameters in the software programme, determine the number of pixels which must change for a movement to be registered, enabling the software to determine whether a mouse is swimming or resting. The parameters which are automatically recorded include: rest time and locomotion time (ms), % rest and % locomotion, distance travelled (cm), speed of travel (cm/s) and number of stops.
Data were analysed by comparing treated groups with the untreated control group using Fisher's PLSD (StatView, SAS Institute Inc., Cary, N.C., USA)

[7] = Table 6, 100 mg/kg i.p. −30 min
[8] = Table 6, 200 mg/kg i.p. −30 min

T1 sequence (P31645 whole entry): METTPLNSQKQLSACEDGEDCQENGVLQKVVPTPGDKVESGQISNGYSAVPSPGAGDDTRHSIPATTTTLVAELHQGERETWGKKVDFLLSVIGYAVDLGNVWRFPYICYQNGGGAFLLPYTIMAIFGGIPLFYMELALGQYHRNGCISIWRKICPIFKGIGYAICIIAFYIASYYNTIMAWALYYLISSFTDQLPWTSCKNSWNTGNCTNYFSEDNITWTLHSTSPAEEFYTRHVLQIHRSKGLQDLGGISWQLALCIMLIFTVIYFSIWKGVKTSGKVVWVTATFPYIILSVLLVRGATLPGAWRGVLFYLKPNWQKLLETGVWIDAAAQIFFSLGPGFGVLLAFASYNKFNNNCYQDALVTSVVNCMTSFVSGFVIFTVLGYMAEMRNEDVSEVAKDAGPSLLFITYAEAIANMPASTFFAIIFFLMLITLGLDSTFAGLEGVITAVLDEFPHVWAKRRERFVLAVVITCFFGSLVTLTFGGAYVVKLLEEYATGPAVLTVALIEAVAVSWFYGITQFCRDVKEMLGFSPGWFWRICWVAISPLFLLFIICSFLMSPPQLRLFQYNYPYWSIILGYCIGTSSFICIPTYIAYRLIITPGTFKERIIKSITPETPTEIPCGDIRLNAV

16-hydroxytotarol
IC50 [1]: 7.4 µM

CC(C)c1ccc2c(c1)C(=O)C[C@H]1[C@](C)(C(=O)O)CCC[C@]21C [7-Oxocallitrisic Acid, 7-oxocallitrisic acid]
IC50 [1]: 32.9 ± 8.6 µM

CC(C)c1cc2c(c(O)c1O)[C@@]13CCCC(C)(C)[C@@H]1C[C@@H]2OC3 [20-Deoxo-carnosol, 20-deoxo-carnosol]
IC50 [1]: 4.2 ± 0.2 µM | IC50 [2]: 4.3 ± 1.1 µM | IC50 [3]: 27 ± 7.3 µM | NUMBER OF MARBLES COVERED BY SAWDUST % change from control (mouse [4]; Table 6, 30 mg/kg i.p. −30 min): −24% | NUMBER OF MARBLES COVERED BY SAWDUST mean ± s.e.m. (mouse [4]; Table 6, 30 mg/kg i.p. −30 min): 16.7 ± 2.2 | NUMBER OF MARBLES COVERED BY SAWDUST % change from control (mouse [4]; [7]): −56% | NUMBER OF MARBLES COVERED BY SAWDUST mean ± s.e.m. (mouse [4]; [7]): 9.7 ± 2.3 | NUMBER OF MARBLES COVERED BY SAWDUST % change from control (mouse [4]; [8]): −60% | NUMBER OF MARBLES COVERED BY SAWDUST mean ± s.e.m. (mouse [4]; [8]): 8.8 ± 2.4 | marble burying behaviour (in words) (mouse [4]; mouse, 30, 100 and 200 mg/kg i.p.): dose-dependently and significantly reduced marble burying behaviour

COc1c(C(C)C)cc2c(c1O)C1(C(=O)O)CCCC(C)(C)C1CC2 (stereo not drawn) [Carnosic acid-12-methylether, carnosic acid 12-methyl ether]
IC50 [1]: 22 ± 4.9 µM | IC50 [2]: 40.6 ± 0.25 µM | IC50 [3]: 83.1 ± 6.8 µM

CN1C(=O)CC(=O)N(c2ccccc2)c2cc(Cl)ccc21 [Clobazam, clobazam, reference compound]
NUMBER OF CROSSINGS % change from control (mouse [5]): +56% | TIME SPENT IN THE LIGHT COMPARTMENT % change from control (mouse [5]): +43%

CNCCC(Oc1ccc(C(F)(F)F)cc1)c1ccccc1 (stereo not drawn) [Fluoxetine, fluoxetine, reference compound]
NUMBER OF MARBLES COVERED BY SAWDUST % change from control (mouse [4]; Table 5, 32 mg/kg i.p. −30 min): −100% | NUMBER OF MARBLES COVERED BY SAWDUST mean ± s.e.m. (mouse [4]; Table 5, 32 mg/kg i.p. −30 min): 0.0 ± 0.0 | NUMBER OF MARBLES COVERED BY SAWDUST % change from control (mouse [4]; Table 6, 32 mg/kg i.p. −30 min): −100% | NUMBER OF MARBLES COVERED BY SAWDUST mean ± s.e.m. (mouse [4]; Table 6, 32 mg/kg i.p. −30 min): 0.0***

CC(C)c1c(O)ccc2c1CC[C@H]1C(C)(C)CCC[C@]21C [Totarol, totarol]
IC50 [1]: 7.5 ± 2.6 µM

COC(=O)C1(C)CCCC2(C)c3ccc(O)c(C(C)C)c3CCC12 (stereo not drawn) [Totarol-19-carboxylic acid methyl ester, totarol-19-carboxylic acid methyl ester]
IC50 [1]: 7.2 µM

COc1ccc(C(CN(C)C)C2(O)CCCCC2)cc1 (stereo not drawn) [VENLAFAXINE, venlafaxine, reference compound]
NUMBER OF MARBLES COVERED BY SAWDUST % change from control (mouse [4]; Table 6, 16 mg/kg i.p. −30 min): −60% | NUMBER OF MARBLES COVERED BY SAWDUST mean ± s.e.m. (mouse [4]; Table 6, 16 mg/kg i.p. −30 min): 8.7 ± 2.2

CN(C)CCCN1c2ccccc2CCc2ccccc21 [imipramine, reference compound]
Duration of immobility (% change from control) (mouse [6]; 32 mg/kg i.p., −30 min): −61% | Duration of immobility (% change from control) (mouse [6]; 32 mg/kg p.o., −24, −5, −1 h): −56%
